Results published in US20260234159A1, “SMALL MOLECULE TREATMENT OF FATTY LIVER DISEASE AND HCC” (SCANDIEDGE THERAPEUTICS AB, priority 2023, published 2026).
Where two headings read alike, the source gives them in different places.

Tests used:
[1] = In vivo toxicological study in rats: haematology; design: species or system rats of the Wistar strain
Protocol: Forty-two male and forty-two female rats of the Wistar strain were allocated to the study. Three groups of three males and three females were given doses of 30, 100 and 300 mg/kg of target compounds (Table 8). The vehicle was 1.5 w/w % HPMC, 1.5 w/w % PS80 in 10 mM PBS, pH 7 and dose volume were 5 mL/kg. The animals were acclimatised at least 14 day prior to the study and exposed to a 12 hours light, 12 hours dark light cycle. The formulations were administered via oral gavage. Administration occurred once daily in the morning for seven consecutive days. Blood for scheduled haematology and plasma chemistry were taken at necropsy. For plasma chemistry, 0.6 ml blood (lithium heparin) per animal and for haematology, 0.5 ml blood (K2EDTA) per animal. The blood and plasma were analysed using Exigo analyzer and Vetscan equipment. Blood was analysed within 60 min of sampling. On the morning of analysis, the Exigo analyzer was checked against a reference sample provided by the manufacturer, and a control sample analysis cycle was performed (Table 9).

HepG2 cells = assay: Triglyceride (TAG) measurement assay, one week steatosis model; type: cell-based, human; details: for activity at 10 µM: Homo sapiens
How it was run: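 HepG2 cells steatosis-induced for one week in high-glucose DMEM/10% FBS with 10 μg/ml insulin and 10 μM T0901317, media changed at days 0, 3 and 5, with 10 μM test compound throughout. Triglyceride measured colorimetrically (OD 570 nm); viability by MTT.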

[2] = female, 30 mg/kg oral daily 7 d
[3] = female, 100 mg/kg oral daily 7 d
[4] = female, 300 mg/kg oral daily 7 d
[5] = 168 h, HepG2, 10 μM, one week steatosis induce media, Control 100.00, read-out: TAG (%)

In the case of COc1ccccc1NC(=O)N1CCc2c(sc(NC(=O)c3cccc4ccccc34)c2C#N)C1 [PKL-A152], the GRAN [1, 2] is reported as 1.00 10^9/l, the HCT [1, 2] is reported as 41.5% and the HGB [1, 2] is reported as 14.1 g/dL. For the same compound, the LYM [1, 2] was 5.6 10^9/l, the MCH [1, 2] was 19.5 pg and the MCHC [1, 2] was 34.1 g/dL. The MCV [1, 2] was 57.2 fL, the MONO [1, 2] was 0.17 10^9/l and the PLT [1, 2] was 1089 10^9/l. For the same compound, the RBC [1, 2] was 7.24 10^12/l, the RDW % [1, 2] was 13.9% and the WBC [1, 2] was 6.8 10^9/l. For the same compound, the GRAN [1, 3] was 1.20 10^9/l, the HCT [1, 3] was 42.0% and the HGB [1, 3] was 14.3 g/dL. For the same compound, the LYM [1, 3] was 5.7 10^9/l, the MCH [1, 3] was 19.5 pg and the MCHC [1, 3] was 34 g/dL. The MCV [1, 3] was 57.4 fL, the MONO [1, 3] was 0.17 10^9/l and the PLT [1, 3] was 1122 10^9/l. For the same compound, the RBC [1, 3] was 7.32 10^12/l, the RDW % [1, 3] was 14.0% and the WBC [1, 3] was 7.1 10^9/l. The GRAN [1, 4] was 1.03 10^9/l, the HCT [1, 4] was 42.9% and the HGB [1, 4] was 14.7 g/dL. The LYM [1, 4] was 4.8 10^9/l, the MCH [1, 4] was 19.7 pg and the MCHC [1, 4] was 34.1 g/dL. The MCV [1, 4] was 57.7 fL, the MONO [1, 4] was 0.23 10^9/l and the PLT [1, 4] was 1062 10^9/l. For the same compound, the RBC [1, 4] was 7.43 10^12/l, the RDW % [1, 4] was 14.1% and the WBC [1, 4] was 6.0 10^9/l. For the same compound, the GRAN ([1]; male, 30 mg/kg oral daily 7 d) was 1.50 10^9/l, the HCT ([1]; male, 30 mg/kg oral daily 7 d) was 46.3% and the HGB ([1]; male, 30 mg/kg oral daily 7 d) was 15.6 g/dL. The LYM ([1]; male, 30 mg/kg oral daily 7 d) was 5.9 10^9/l, the MCH ([1]; male, 30 mg/kg oral daily 7 d) was 19.6 pg and the MCHC ([1]; male, 30 mg/kg oral daily 7 d) was 33.8 g/dL. The MCV ([1]; male, 30 mg/kg oral daily 7 d) was 58.0 fL, the MONO ([1]; male, 30 mg/kg oral daily 7 d) was 0.23 10^9/l and the PLT ([1]; male, 30 mg/kg oral daily 7 d) was 922 10^9/l. The RBC ([1]; male, 30 mg/kg oral daily 7 d) was 7.97 10^12/l, the RDW % ([1]; male, 30 mg/kg oral daily 7 d) was 14.2% and the WBC ([1]; male, 30 mg/kg oral daily 7 d) was 7.7 10^9/l. For the same compound, the GRAN ([1]; male, 100 mg/kg oral daily 7 d) was 1.47 10^9/l, the HCT ([1]; male, 100 mg/kg oral daily 7 d) was 44.7% and the HGB ([1]; male, 100 mg/kg oral daily 7 d) was 15.1 g/dL. The LYM ([1]; male, 100 mg/kg oral daily 7 d) was 6.9 10^9/l, the MCH ([1]; male, 100 mg/kg oral daily 7 d) was 19.8 pg and the MCHC ([1]; male, 100 mg/kg oral daily 7 d) was 33.8 g/dL. For the same compound, the MCV ([1]; male, 100 mg/kg oral daily 7 d) was 58.8 fL, the MONO ([1]; male, 100 mg/kg oral daily 7 d) was 0.17 10^9/l and the PLT ([1]; male, 100 mg/kg oral daily 7 d) was 990 10^9/l. For the same compound, the RBC ([1]; male, 100 mg/kg oral daily 7 d) was 7.63 10^12/l, the RDW % ([1]; male, 100 mg/kg oral daily 7 d) was 14.6% and the WBC ([1]; male, 100 mg/kg oral daily 7 d) was 8.5 10^9/l. The GRAN ([1]; male, 300 mg/kg oral daily 7 d) was 1.17 10^9/l, the HCT ([1]; male, 300 mg/kg oral daily 7 d) was 45.6% and the HGB ([1]; male, 300 mg/kg oral daily 7 d) was 15.4 g/dL. The LYM ([1]; male, 300 mg/kg oral daily 7 d) was 5.8 10^9/l, the MCH ([1]; male, 300 mg/kg oral daily 7 d) was 19.7 pg and the MCHC ([1]; male, 300 mg/kg oral daily 7 d) was 33.8 g/dL. For the same compound, the MCV ([1]; male, 300 mg/kg oral daily 7 d) was 58.4 fL, the MONO ([1]; male, 300 mg/kg oral daily 7 d) was 0.17 10^9/l and the PLT ([1]; male, 300 mg/kg oral daily 7 d) was 1046 10^9/l. The RBC ([1]; male, 300 mg/kg oral daily 7 d) was 7.80 10^12/l, the RDW % ([1]; male, 300 mg/kg oral daily 7 d) was 14.4% and the WBC ([1]; male, 300 mg/kg oral daily 7 d) was 7.2 10^9/l. The “ratio between TAG content and cell viability” value (HepG2 cells) was “low ratio between TAG content and cell viability”, the activity at 10 µM (HepG2 cells; [5]) was 10.8% and the activity at 10 µM (HepG2 cells; HepG2, 168 h, ratio between TAG content and cell viability, Control 100.0, read-out: TAG/cell viability) was 24.5%. It also gave a TAG/cell viability (HepG2 cells; ratio as printed in text with %) of 24.5%.
In the case of N#Cc1c(NC(=O)c2cccc3ccccc23)sc2c1CCN(C(=O)Nc1ccccc1OC(F)(F)F)C2 [PKL-A159], the GRAN [1, 2] is reported as 0.80 10^9/l, the HCT [1, 2] is reported as 40.3% and the HGB [1, 2] is reported as 14.4 g/dL. The LYM [1, 2] was 4.9 10^9/l, the MCH [1, 2] was 19.4 pg and the MCHC [1, 2] was 35.7 g/dL. For the same compound, the MCV [1, 2] was 54.5 fL, the MONO [1, 2] was 0.13 10^9/l and the PLT [1, 2] was 1028 10^9/l. For the same compound, the RBC [1, 2] was 7.39 10^12/l, the RDW % [1, 2] was 14.1% and the WBC [1, 2] was 5.9 10^9/l. For the same compound, the GRAN [1, 3] was 0.77 10^9/l, the HCT [1, 3] was 41.2% and the HGB [1, 3] was 14.5 g/dL. The LYM [1, 3] was 5.8 10^9/l, the MCH [1, 3] was 18.9 pg and the MCHC [1, 3] was 35.2 g/dL. For the same compound, the MCV [1, 3] was 53.8 fL, the MONO [1, 3] was 0.10 10^9/l and the PLT [1, 3] was 994 10^9/l. For the same compound, the RBC [1, 3] was 7.66 10^12/l, the RDW % [1, 3] was 14.6% and the WBC [1, 3] was 6.7 10^9/l. The GRAN [1, 4] was 0.93 10^9/l, the HCT [1, 4] was 41.1% and the HGB [1, 4] was 14.5 g/dL. The LYM [1, 4] was 5.3 10^9/l, the MCH [1, 4] was 19.4 pg and the MCHC [1, 4] was 35.2 g/dL. For the same compound, the MCV [1, 4] was 55.2 fL, the MONO [1, 4] was 0.17 10^9/l and the PLT [1, 4] was 808 10^9/l. For the same compound, the RBC [1, 4] was 7.45 10^12/l, the RDW % [1, 4] was 14.4% and the WBC [1, 4] was 6.4 10^9/l. For the same compound, the GRAN ([1]; male, 30 mg/kg oral daily 7 d) was 1.03 10^9/l, the HCT ([1]; male, 30 mg/kg oral daily 7 d) was 40.9% and the HGB ([1]; male, 30 mg/kg oral daily 7 d) was 14.5 g/dL. For the same compound, the LYM ([1]; male, 30 mg/kg oral daily 7 d) was 2.8 10^9/l, the MCH ([1]; male, 30 mg/kg oral daily 7 d) was 19.9 pg and the MCHC ([1]; male, 30 mg/kg oral daily 7 d) was 35.4 g/dL. The MCV ([1]; male, 30 mg/kg oral daily 7 d) was 56.3 fL, the MONO ([1]; male, 30 mg/kg oral daily 7 d) was 0.10 10^9/l and the PLT ([1]; male, 30 mg/kg oral daily 7 d) was 1117 10^9/l. The RBC ([1]; male, 30 mg/kg oral daily 7 d) was 7.26 10^12/l, the RDW % ([1]; male, 30 mg/kg oral daily 7 d) was 15.1% and the WBC ([1]; male, 30 mg/kg oral daily 7 d) was 3.9 10^9/l. For the same compound, the GRAN ([1]; male, 100 mg/kg oral daily 7 d) was 1.43 10^9/l, the HCT ([1]; male, 100 mg/kg oral daily 7 d) was 42.4% and the HGB ([1]; male, 100 mg/kg oral daily 7 d) was 14.9 g/dL. The LYM ([1]; male, 100 mg/kg oral daily 7 d) was 7.1 10^9/l, the MCH ([1]; male, 100 mg/kg oral daily 7 d) was 19.9 pg and the MCHC ([1]; male, 100 mg/kg oral daily 7 d) was 35.3 g/dL. For the same compound, the MCV ([1]; male, 100 mg/kg oral daily 7 d) was 56.4 fL, the MONO ([1]; male, 100 mg/kg oral daily 7 d) was 0.23 10^9/l and the PLT ([1]; male, 100 mg/kg oral daily 7 d) was 974 10^9/l. For the same compound, the RBC ([1]; male, 100 mg/kg oral daily 7 d) was 7.51 10^12/l, the RDW % ([1]; male, 100 mg/kg oral daily 7 d) was 15.4% and the WBC ([1]; male, 100 mg/kg oral daily 7 d) was 8.7 10^9/l. The GRAN ([1]; male, 300 mg/kg oral daily 7 d) was 1.00 10^9/l, the HCT ([1]; male, 300 mg/kg oral daily 7 d) was 42.4% and the HGB ([1]; male, 300 mg/kg oral daily 7 d) was 14.8 g/dL. For the same compound, the LYM ([1]; male, 300 mg/kg oral daily 7 d) was 4.6 10^9/l, the MCH ([1]; male, 300 mg/kg oral daily 7 d) was 19.6 pg and the MCHC ([1]; male, 300 mg/kg oral daily 7 d) was 35.1 g/dL. For the same compound, the MCV ([1]; male, 300 mg/kg oral daily 7 d) was 55.8 fL, the MONO ([1]; male, 300 mg/kg oral daily 7 d) was 0.10 10^9/l and the PLT ([1]; male, 300 mg/kg oral daily 7 d) was 1200 10^9/l. The RBC ([1]; male, 300 mg/kg oral daily 7 d) was 7.59 10^12/l, the RDW % ([1]; male, 300 mg/kg oral daily 7 d) was 15.3% and the WBC ([1]; male, 300 mg/kg oral daily 7 d) was 5.7 10^9/l. For the same compound, the activity at 10 µM (HepG2 cells; [5]) was 4.54%.
